Our source for the Activity values is ChEMBL document CHEMBL4715894, “Design and synthesis of an anthranyl bridged optically active dinuclear iron(II)-ligand and evaluation of DNA-cleaving activity” (Bioorg Med Chem Lett, 2021).

What all share (type): nucleic-acid assay
The test system of test [1] is DNA. The test can be described thus: Induction of DNA cleavage in Escherichia coli ER2272 pUC19 plasmid DNA assessed as decrease in supercoiled DNA at 0.1 to 50 uM in presence of Fe2+ at 0.1 to 5 uM after 60 mins by ethidium bromide staining based densitometric method. The note with it: dose 0.1-50 µM.
In test [2] the test system is dsDNA. The test can be described thus: Induction of DNA cleavage in pBluescript II SK+ DNA (unknown origin) assessed as cleaved in 5'-CT-3' sequence at 30 uM in presence of Fe2+ at 30 uM after 30 mins by PAGE based DNA sequencing analysis.
Test [3] relates to DNA. The test can be described thus: Induction of DNA cleavage in Escherichia coli ER2272 pUC19 plasmid DNA assessed as decrease in supercoiled DNA at 0.1 to 50 uM in presence of Fe2+ at 10 uM after 60 mins by ethidium bromide staining based densitometric method relative to control. As to conditions: dose 0.1-50 µM. On the set-up: scale not given: the % may be the effect or the level left.

Test [4] relates to DNA. The test can be described thus: Induction of DNA cleavage in Escherichia coli ER2272 pUC19 plasmid DNA assessed as linear DNA at 0.1 to 50 uM in presence of Fe2+ at >5 uM uM after 60 mins by ethidium bromide staining based densitometric method. As to conditions: dose 0.1-50 µM.
Test [5] relates to DNA. The test can be described thus: Induction of DNA cleavage in Escherichia coli ER2272 pUC19 plasmid DNA assessed as increase in relaxed circular DNA at 30 uM in presence of Fe2+ at 30 uM by ethidium bromide staining based densitometric method. The note with it: time min <=15.
Test [6] deals with DNA. The test can be described thus: Induction of DNA cleavage in Escherichia coli ER2272 pUC19 plasmid DNA assessed as linear DNA at 30 uM in presence of Fe2+ at 30 uM up to 15 mins by ethidium bromide staining based densitometric method. The note with it: time min <=15.
Test [7] concerns DNA. The test can be described thus: Induction of DNA cleavage in Escherichia coli ER2272 pUC19 plasmid DNA assessed as decrease in supercoiled DNA at 30 uM in presence of Fe2+ at 30 uM by ethidium bromide staining based densitometric method. The note with it: time min <=15.
Test [8] concerns DNA. The test can be described thus: Induction of DNA cleavage in Escherichia coli ER2272 pUC19 plasmid DNA assessed as decrease in relaxed circular DNA at 0.1 to 50 uM in presence of Fe2+ at 10 uM after 60 mins by ethidium bromide staining based densitometric method. As to conditions: dose 0.1-50 µM.
Test [9] has as its system dsDNA. The test can be described thus: Induction of DNA cleavage in pBluescript II SK+ DNA (unknown origin) assessed as cleaved in 5'-AATTCCGGAA-3' sequence at 5 uM in presence of Fe2+ at 30 uM after 10 mins by PAGE based DNA sequencing analysis.
The test system of test [10] is DNA. The test can be described thus: Induction of DNA cleavage in Escherichia coli ER2272 pUC19 plasmid DNA assessed as decrease in supercoiled DNA at 15 uM in presence of Fe2+ at 30 uM after 1 min by ethidium bromide staining based densitometric method relative to control.
Test [11] has as its system dsDNA. The test can be described thus: Induction of DNA cleavage in pBluescript II SK+ DNA (unknown origin) assessed as cleaved in 5'-TTAATT-3' sequence at 5 uM in presence of Fe2+ at 30 uM after 10 mins by PAGE based DNA sequencing analysis.
Test [12] has as its system DNA. The test can be described thus: Induction of DNA cleavage in Escherichia coli ER2272 pUC19 plasmid DNA assessed as decrease in relaxed circular DNA at 0.1 to 50 uM in presence of Fe2+ at 30 to 50 uM after 60 mins by ethidium bromide staining based densitometric method. The note with it: dose 0.1-50 µM.
The test system of test [13] is DNA. The test can be described thus: Induction of DNA cleavage in Escherichia coli ER2272 pUC19 plasmid DNA assessed as decrease in linear DNA at 0.1 to 50 uM in presence of Fe2+ at 30 to 50 uM after 60 mins by ethidium bromide staining based densitometric method. The note with it: dose 0.1-50 µM.
Test [14] relates to DNA. The test can be described thus: Induction of DNA cleavage in Escherichia coli ER2272 pUC19 plasmid DNA assessed as increase in linear DNA at 15 uM in presence of Fe2+ at 30 uM after 1 min by ethidium bromide staining based densitometric method.
Test [15] concerns DNA. The test can be described thus: Induction of DNA cleavage in Escherichia coli ER2272 pUC19 plasmid DNA assessed as increase in relaxed circular DNA at 15 uM in presence of Fe2+ at 30 uM after 1 min by ethidium bromide staining based densitometric method.
For test [16], the system named is DNA. The test can be described thus: Induction of DNA cleavage in Escherichia coli ER2272 pUC19 plasmid DNA assessed as decrease in supercoiled DNA at 0.1 to 50 uM in presence of Fe2+ at 30 to 50 uM after 60 mins by ethidium bromide staining based densitometric method. As to conditions: dose 0.1-50 µM.
Test [17] deals with DNA. The test can be described thus: Induction of DNA cleavage in Escherichia coli ER2272 pUC19 plasmid DNA assessed as decrease in linear DNA at 15 uM in presence of Fe2+ at 30 uM <=15 min by ethidium bromide staining based densitometric method. The note with it: time min <=15.
For test [18], the system named is DNA. The test can be described thus: Induction of DNA cleavage in Escherichia coli ER2272 pUC19 plasmid DNA assessed as decrease in relaxed circular DNA at 15 uM in presence of Fe2+ at 30 uM <=15 min by ethidium bromide staining based densitometric method. As to conditions: time min <=15.

Structures are written as SMILES. Calls of active or inactive are those of the source. The calls are words filed in the database; no cut-off is given here.

For the compound `N[C@H]1CCCC[C@@H]1N(Cc1ccccn1)Cc1ccccn1`, the result with DNA [1], in the test on dsDNA [2] and in the test with DNA [4] was Active. The Activity in the test on DNA [3] was 100%.

`N[C@@H]1CCCC[C@H]1N(Cc1ccccn1)Cc1ccccn1`: the outcome in the test with DNA [1], in the test with dsDNA [2], in the test with DNA [5], in the test with DNA [7] and in the test on DNA [4] was Active. Moreover, the outcome in the test with DNA [6] was inactive. The Activity in the test with DNA [3] was determined as 100%.

Consider `c1ccc(CN(Cc2ccccn2)[C@@H]2CCCC[C@H]2NCc2cccc3cc4cccc(CN[C@@H]5CCCC[C@H]5N(Cc5ccccn5)Cc5ccccn5)c4cc23)nc1`, for which the outcome in the test on DNA [8], in the test with dsDNA [9], with DNA [10], with dsDNA [11], with DNA [12] and with DNA [13] was Active. Moreover, the result with DNA [14], with DNA [15], in the test with DNA [3], with DNA [4], in the test on DNA [16] and in the test with DNA [17] was Active. The outcome in the test on DNA [18] was Active.

With `c1ccc(CN(Cc2ccccn2)[C@H]2CCCC[C@@H]2NCc2cccc3cc4cccc(CN[C@H]5CCCC[C@@H]5N(Cc5ccccn5)Cc5ccccn5)c4cc23)nc1`, the result in the test on DNA [8], with dsDNA [9], in the test on dsDNA [11], with DNA [12], in the test with DNA [13] and in the test on DNA [3] was Active. Also, the outcome with DNA [4] and in the test with DNA [16] was Active.
